From patent US10208046B2, “Nitrogen-containing heterocyclic compound” (Takeda Pharmaceutical Company Limited, priority 2014, dated 2019)

Legend:
[1] = molecular target: T1, human M1 receptor (hCHRM1) (Homo sapiens, UniProt P11229); assay: Measurement of M1 receptor positive allosteric modulator (M1PAM) activity, calcium fluorescence in CHO-K1 cells; type: cell-based;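 for EC50: potency reported as IP value in nM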
T1 construct: expressed in transfected cells
T1 sequence (P11229 1-460): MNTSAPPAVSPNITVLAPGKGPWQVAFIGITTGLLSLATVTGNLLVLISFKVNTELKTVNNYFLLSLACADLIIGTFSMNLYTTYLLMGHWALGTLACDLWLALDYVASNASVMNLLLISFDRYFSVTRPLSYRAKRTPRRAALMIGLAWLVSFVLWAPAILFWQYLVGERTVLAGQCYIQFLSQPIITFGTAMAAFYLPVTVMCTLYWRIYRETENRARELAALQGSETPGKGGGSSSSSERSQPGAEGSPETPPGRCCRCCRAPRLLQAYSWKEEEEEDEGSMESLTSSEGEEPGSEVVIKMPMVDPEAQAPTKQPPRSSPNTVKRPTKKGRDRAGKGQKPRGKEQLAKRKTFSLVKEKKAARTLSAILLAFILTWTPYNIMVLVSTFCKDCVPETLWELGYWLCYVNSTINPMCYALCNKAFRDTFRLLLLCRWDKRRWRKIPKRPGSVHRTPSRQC
In short: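 CHO-K1 cells stably expressing human M1, Fluo-4 loaded, treated with compound plus acetylcholine at EC20 (final 0.6-0.8 nM); calcium fluorescence read by FLIPR over 1 min. Activity scaled to 1 μM acetylcholine (100%) and DMSO (0%); IP = inflection point of concentration-response curve.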

[2] = tested on: IP1 production in hippocampi; assay: Measurement of myo-inositol 1 phosphate (IP1) in rat hippocampi after oral administration; type: in vivo, male Long-Evans rats; settings: 30 mg/kg oral, rat hippocampus IP1/protein ratio, Vehicle group as 100%
Experimental: Measurement of Myo-Inositol 1 Phosphate (IP1)
Animals used were male Long-Evans rats. They were used after acclimation for at least 1 week. Test compounds were suspended in 0.5% (w/v) aqueous methylcellulose solution, and the suspension was orally administered to the rats. After a given time, lithium chloride was dissolved in saline and subcutaneously administered into the rats. After a given time, their bilateral hippocampi were isolated from the rats, and the wet weight thereof was measured. The isolated hippocampi were homogenized with HEPES buffer, followed by centrifugation. The IP1 and protein concentrations in the supernatant were measured by IP-One HTRF(R) assay kit (Cisbio Bioassays) and BCA protein assay kit (Thermo Scientific), respectively. The level of the IP1 production was expressed as the ratio of the concentration of IP1 to that of protein. The increase rate of the IP1 production was shown as a relative value when Vehicle administration group as 100%.

[3] = tested on: Scopolamine-induced memory deficits models; assay: Novel object recognition test; type: in vivo, male Long-Evans rats; settings: scopolamine 0.1 mg/kg s.c., retention trial 4 hr later, mean±standard error
Experimental: Novel Object Recognition Test Novel object recognition test is comprised of two trials called the acquisition and the retention trials. Scopolamine-induced memory deficits models were used for the test, and animals used were male Long-Evans rats (7-week-old). On the day before the test, for acclimation, the rats were allowed to freely move about the test box (40×40×50 cm) for 10 minutes. On the test day, the rats were acclimated to the test room for about 1 hr prior to the test. The test compounds were orally administered to the rats in a single dose 2 hours before the acquisition trial. For induction of learning and memory deficits, scopolamine (0.1 mg/kg) was subcutaneously administered into the rats 30 min before the acquisition trial. For the acquisition trial, two identical objects (A1, A2) were placed in the test box. The rats were put in the test box for 3 min, and the duration exploring each object was measured. The retention trial was performed 4 hr after the acquisition trial. […] The duration for exploring each object in the acquisition trial and the retention trial was measured, and the exploration rate of novel object was calculated. The exploration rate of novel object was expressed as (the duration exploring the novel object)/[(the duration exploring the novel object)+(the duration exploring the familiar object)]×100(%) at mean±standard error.

Cc1nn(C)cc1-c1ccc(CN2Cc3ccnc(OCC(F)F)c3C2=O)cc1 [Example 6, 4-(2,2-difluoroethoxy)-2-(4-(1,3-dimethyl-1H-pyrazol-4-yl)benzyl)-1,2-dihydro-3H-pyrrolo[3,4-c]pyridin-3-one] was tested, and the “activity (%) at 10 μM” value ([1]; 10 μM test compound with acetylcholine at EC20, 100% = acetylcholine 1 μM, 0% = DMSO) was 109%, the EC50 ([1]; inflection point in the concentration-dependent curve, acetylcholine at EC20 (final 0.6-0.8 nM), CHO-K1 cells expressing human M1, Fluo-4, FLIPRtetra, read-out: IP value) was 0.07 µM and the “increase rate (% of Vehicle)” value [2] was 38 % of Vehicle. For the same compound, the “exploration rate of novel object (%)” value ([3]; 3 mg/kg oral single dose 2 hours before acquisition trial) was 58.75±2.01% and the “exploration rate of novel object (%)” value ([3]; 10 mg/kg oral single dose 2 hours before acquisition trial) was 52.48±2.28%.
